Patent US7947839B2, “Heterocyclic-substituted bis-1,8 naphthalimide compounds, antibody drug conjugates, and methods of use” (Genentech, Inc., priority 2004, dated 2011)
pIC50: −log10 of the molar value. Like-named read-outs stand apart in the source and are kept apart here.

Tests used:
[1] = system: MX-1 (mammary carcinoma) xenografts; conditions: iv five daily doses at 20 mg/kg (2 cycles), or every 3 days for two doses at 55 mg/kg (2 cycles), or weekly for four doses; cited from earlier work
[2] = system: topoisomerase II; conditions: unlike most other known topoisomerase II inhibitors; cited from earlier work
[3] = system: human lung (LX-1) carcinoma xenograft; conditions: in vivo; cited from earlier work
[4] = system: human melanoma (LOX); conditions: in vivo; cited from earlier work
[5] = system: mouse xenograft models; conditions: repeated dosing regimens; no strong schedule dependency; cited from earlier work
[6] = target: T1, topoisomerase I isolated from calf thymus (Bos taurus, UniProt F1MN93); conditions: supercoiled DNA relaxation assay; cited from earlier work
T1 construct: topoisomerase I isolated from calf thymus; from tissue; host or cells: calf thymus
T1 sequence (F1MN93 1-767): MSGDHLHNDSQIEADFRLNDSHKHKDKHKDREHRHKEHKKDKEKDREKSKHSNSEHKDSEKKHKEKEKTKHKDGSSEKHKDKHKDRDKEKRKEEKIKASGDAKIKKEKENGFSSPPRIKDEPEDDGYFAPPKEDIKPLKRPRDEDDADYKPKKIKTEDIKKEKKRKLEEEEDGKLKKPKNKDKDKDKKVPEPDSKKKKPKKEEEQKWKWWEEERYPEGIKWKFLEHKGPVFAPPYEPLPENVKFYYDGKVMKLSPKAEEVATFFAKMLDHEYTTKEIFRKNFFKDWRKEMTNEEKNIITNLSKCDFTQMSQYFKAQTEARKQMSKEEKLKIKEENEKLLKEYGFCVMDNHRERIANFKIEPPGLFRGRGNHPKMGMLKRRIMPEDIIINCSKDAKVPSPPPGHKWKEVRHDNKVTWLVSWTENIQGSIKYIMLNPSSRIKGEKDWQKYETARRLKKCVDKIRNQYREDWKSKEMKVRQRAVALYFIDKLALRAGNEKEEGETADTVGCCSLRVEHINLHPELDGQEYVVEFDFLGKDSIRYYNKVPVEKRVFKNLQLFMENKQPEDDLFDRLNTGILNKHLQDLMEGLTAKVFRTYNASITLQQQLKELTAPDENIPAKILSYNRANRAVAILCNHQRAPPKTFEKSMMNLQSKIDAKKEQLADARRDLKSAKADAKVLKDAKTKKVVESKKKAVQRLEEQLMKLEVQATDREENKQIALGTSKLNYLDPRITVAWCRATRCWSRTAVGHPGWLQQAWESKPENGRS

[7] = system: human colon (CX-1) carcinoma xenograft; conditions: in vivo; cited from earlier work
[8] = system: BT474, H460, HCT116, HUVEC, LNCAP, MCF7, and PC3 cells; test: free test compound cell-based assay, 7 tumor cell panel (CellTiter-Glo); set-up: species or system Human; conditions: NSA = no significant activity; for pIC50 / IC50: Homo sapiens; for pIC50: read-out: Avg.; for IC50: read-out: Avg. (log IC50) (converted)
Procedure: Heterocyclic-substituted bis-1,8-naphthalimide compounds of Formula XV in Table 2 were prepared and tested for in vitro activity against a panel of tumor cells (Example 110).
Alternatively, the efficacy of compounds of the invention can be assayed by the following free test compound cell-based assay protocol
• 1. Prepare each cell line (BT474, H460, HCT116, HUVEC, LNCaP, MCF7, and PC3) at 1 k cells/well in separate plates with Complete Media (CM): RPM1 […]+10% FBS (Fetal Bovine Serum)+1% of 200 mM L-Glutamine. Plate number depends on test compounds provided by submitter. • 2. Detach prospective cell lines by first removing the media. When the flask is empty of media, begin rinsing out individual flasks with 5 mL sterile PBS. Move the PBS around within the flask to rinse well. Decant the PBS and add aseptically 5 mL of Accutase/flask. Make sure the Accutase covers the entire flask. • 3. Immediately place the flask(s) into a 37° C. incubator to allow cells to detach for 5-7 minutes. • 4. Post 5-7 minutes, remove flask(s) from the incubator and begin harvesting the detached cells using a serological pipette. Pipette up and down along the back of the flask to facilitate cell detachment. Pipette the Accutase containing cells into a sterile 50 mL conical tube/cell line. Pipette 10 mL of sterile PBS and re-rinse the flask to obtain remaining cells and dispense it into the same 50 mL conical tube/cell line for a total volume of 15 mL/tube/cell line. • 5. After each cell line has been allocated to a designated tube, take out 100 μL/tube/cell line for the cell counts. While the cell counts are being calculated, centrifuge the 50 mL tubes at 1000 rpm at 4° C. with a high brake. • 6. When centrifugation and cell calculations are completed, decant excess liquid and resuspend the cell pellet(s) using 5 mL CM, depending on calculations. • 7. Using a 5 mL syringe and an 18 G ½ needle, strain the cells to help prevent aggregation. Further strain by using a […] cell filter to block out any huge aggregates not broken down by the needle. • 8. After cell straining and filtering, take out calculated amount for a 1 k cells/well into fresh media. Take the media containing cells and load 100 μL/well into a bottom tissue culture treated flat 96 well plate. • 9. Immediately place in a 37° C. incubator overnight to allow the cells to adhere to the tissue culture treated 96 well plates. Day 2: • 1. Test compounds are submitted at 10 mM in sterile DMSO. • 2. DMSO as negative control and a positive standard are used in every assay! • 3. Prepare a 1:1000 fold dilution for each test compound, control, and standard for a 10e-5 M starting point. Do a 1:100 first, then a 1:10. • 4. Prior to diluting samples, vortex the samples and the controls for a homogeneous mixture. Note any sample that will not solubilize and/or stay in suspension. • 5. When the samples are at 10e-5 M, vortex each tube well and spin down fluid to ensure sample remains in tacked. Manual Dilution Protocol: • 1. After the tubes are at a final 1:1000 (10e-5 M) dilution, load the first column of the microtube box with the prospective sample. Load DMSO and positive control in singlets. The test compounds are loaded in duplicates. Load the remaining empty microtube racks with 540 μL of media to prepare for a serial dilution of 1:10. • 2. Agitate and transfer 60 μL from column 1 into successive wells containing 540 μL of media (1:10). Therefore, transfer 60 μL of column 1 into 540 μL of column 2. Resuspend column 2 about 10-15×'s then transfer 60 μL from column 2 to column 3 etc. Automated Dilution Protocol: • 1. Once the tubes are at a final 1:1000 (10e-5 M), load the first column of the microtube box with the prospective sample. Load DMSO and positive control in singlets. The compounds are loaded in duplicates. Load the remaining empty microtube racks manually with 540 μL of media to prepare for the automated serial dilution of 1:10 (see above diagram). • 2. […]

[9] = average linear IC50 across the 7 tumor cell panel
[10] = average log IC50 across the 7 tumor cell panel

Compound | pIC50 [8, 9] | IC50 [8, 10] | other results
O=C1c2cccc3cccc(c23)C(=O)N1CCNCCCNCCN1C(=O)c2cccc3cccc(c23)C1=O [elinafide] | – | – | regression of MX-1 (mammary carcinoma) xenografts [1]: complete regression; DNA cleavage [2]: does not cause significant DNA cleavage; tumor regression in human lung (LX-1) carcinoma xenograft model [3]: partial and complete tumor regression, as well as some cures; efficacy in human melanoma (LOX) models [4]: curative; antitumor activity [5]: demonstrated antitumor activity; pIC50 [6]: 5.30; tumor regression in human colon (CX-1) carcinoma xenograft model [7]: partial and complete tumor regression, as well as some cures
COCCOCCOCC(=O)N(CCCNCCN1C(=O)c2cccc3c(N4CCOCC4)ccc(c23)C1=O)CCN1C(=O)c2cccc3c(N4CCOCC4)ccc(c23)C1=O [Compound 54g, N, N′-(N-methylethoxyethoxyacetyloxy, bis-aminoethyl-1,3-propanediamine)-bis-4-morpholino-1,8 naphthalimide] | 6.16 | 692 nM | –
CN1CCN(c2ccc3c4c(cccc24)C(=O)N(CCNCCNCCN2C(=O)c4cccc5c(Br)ccc(c45)C2=O)C3=O)CC1 [Compound 61, N, N′-(bis-aminoethyl-1,2-ethanediamine)-4-piperazino,4-bromo-1,8 naphthalimide] | 7.39 | 40.7 nM | –
O=C(CC(=O)NCCN1C(=O)c2cccc3c(N4CCOCC4)ccc(c23)C1=O)NCCN1C(=O)c2cccc3c(N4CCOCC4)ccc(c23)C1=O [Compound 35, N, N′-(bis-ethyl, malondiamide)-bis-4-morpholino-1,8 naphthalimide] | – | – | Avg. (nM) [8, 9]: NSA; Avg. (log IC50) [8, 10]: NSA
O=C1c2cccc3c(N4CCOCC4)ccc(c23)C(=O)N1CCCCNCCCN1C(=O)c2cccc3c(N4CCOCC4)ccc(c23)C1=O [Compound 45, N, N′-(4-aza-octanyl)-bis-4-morpholino-1,8 naphthalimide] | 5.82 | 1510 nM | –
CN1CCN(c2ccc3c4c(cccc24)C(=O)N(CCNCCNCCN2C(=O)c4cccc5c(N6CCN(C)CC6)ccc(c45)C2=O)C3=O)CC1 [Compound 60, N, N′-(bis-aminoethyl-1,2-ethanediamrne)-bis-4-(4-methylpiperazino)-1,8 naphthalimide] | 8.98 | 1.05 nM | –
CC(=O)N1CCN(c2ccc3c4c(cccc24)C(=O)N(CCNCCCNCCN2C(=O)c4cccc5c(N6CCN(C(C)=O)CC6)ccc(c45)C2=O)C3=O)CC1 [Compound 63c, N, N′-(bis-aminoethyl-1,3-propanediamine)-bis-4-(4-acetylpiperazino)-1,8 naphthalimide] | 8.96 | 1.1 nM | –
C[C@H](N)C(=O)N(CCCNCCN1C(=O)c2cccc3c(N4CCOCC4)ccc(c23)C1=O)CCN1C(=O)c2cccc3c(N4CCOCC4)ccc(c23)C1=O [Compound 54e, N, N′-(N-alanyl, bis-aminoethyl-1,3-propanediamine)-bis-4-morpholino-1,8 naphthalimide] | 6.90 | 126 nM | –
CCN(CCCNCCN1C(=O)c2cccc3c(N4CCOCC4)ccc(c23)C1=O)CCN1C(=O)c2cccc3c(N4CCOCC4)ccc(c23)C1=O [Compound 30a, N, N′-(N-ethyl, bis-aminoethyl-1,3-propanediamine)-bis-4-morpholino-1,8 naphthalimide] | 8.40 | 3.98 nM | –
O=C1c2cccc3c(N4CCNCC4)ccc(c23)C(=O)N1CCNCCNCCN1C(=O)c2cccc3c(N4CCNCC4)ccc(c23)C1=O [Compound 58b, N, N′-(bis-aminoethyl-1,2-ethanediamine)-bis-4-piperazino-1,8 naphthalimide] | 7.57 | 26.9 nM | –
CC(=O)N1CCN(c2ccc3c4c(cccc24)C(=O)N(CCN2C=[N+](CCN4C(=O)c5cccc6c(N7CCN(C(C)=O)CC7)ccc(c56)C4=O)CC2)C3=O)CC1 [Compound 63b, N, N′-(bis-aminoethy-4,5-dihydro-imidazolium)-bis 4-(4-acetylpiperazino)-1,8 naphthaliinide] | 6.60 | 251 nM | –
